Assay results published in patent US12071434B2, “Heterocyclic compound” (Takeda Pharmaceutical Company Limited, priority 2018, dated 2024).

target: T1, human orexin type 2 receptor (Homo sapiens, UniProt O43614); test: Measurement of orexin type 2 receptor agonist activity (calcium fluorescence, Fluo-4 AM, FDSS) in CHO cells forcibly expressing human OX2 receptor; assay type: cell-based; details: test compound 3 μM, DMSO = 0%, orexin A (human) 10 nM = 100%
T1 construct: expressed in transfected cells
T1 sequence (O43614 1-444): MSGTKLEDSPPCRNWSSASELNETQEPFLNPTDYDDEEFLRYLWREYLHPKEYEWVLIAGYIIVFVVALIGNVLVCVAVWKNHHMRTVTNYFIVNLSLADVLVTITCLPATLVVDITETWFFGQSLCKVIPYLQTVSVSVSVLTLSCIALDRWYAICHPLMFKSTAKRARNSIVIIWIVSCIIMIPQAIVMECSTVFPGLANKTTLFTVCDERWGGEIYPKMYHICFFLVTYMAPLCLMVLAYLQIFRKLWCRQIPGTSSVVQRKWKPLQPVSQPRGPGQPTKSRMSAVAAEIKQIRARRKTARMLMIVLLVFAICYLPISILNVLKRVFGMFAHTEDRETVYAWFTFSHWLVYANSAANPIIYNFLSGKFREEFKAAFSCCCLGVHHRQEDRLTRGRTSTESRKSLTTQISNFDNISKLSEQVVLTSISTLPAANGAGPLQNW
Excerpt: To obtain a cell clone stably expressing human orexin type 2 receptor, human orexin type 2 receptor cDNA was inserted into pcDNA3.1(+) plasmid vector (Invitrogen), and a plasmid DNA for expression of human orexin type 2 receptor (pcDNA3.1(+)/hOX2R) was cloned. The plasmid DNA was introduced into CHO-dhfr cell by an electroporation method, and human orexin type 2 receptor expressing clone cells were obtained by limiting dilution method by using G418 drug resistance as a selection marker.
CHO cells forcibly expressing human OX2 receptor were seeded in each well of 384 well black transparent bottom plate (BD Falcon) at 7,500 cells/well, and cultured for one day in a 5% CO2 incubator at 37° C. After removal of the medium in the cell plate, assay buffer A containing a calcium indicator (HBSS (Thermo Fisher Scientific), 20 mM HEPES (Thermo Fisher Scientific), 0.1% BSA (Sigma-Aldrich), 2.5 μg/mL Fluo-4 AM (DOJINDO Chemical), 0.08% Pluronic F127 (DOJINDO Chemical), 1.25 mM probenecid (DOJINDO Chemical)) was added at 30 μL/well. The plate was stood for 30 min in a 5% CO2 incubator at 37° C., and further stood at room temperature for 30 min. A test compound prepared by diluting with assay buffer B (HBSS, 20 mM HEPES, 0.1% BSA) was added at 10 μL/well, and the fluorescence value was measured by FDSSpCELL (Hamamatsu Photonics K.K.) every one sec for 1 min, and thereafter every two sec for 1 min 40 sec. The activity (%) of the test compound was calculated assuming that variation in the fluorescence value when DMSO was added instead of the test compound was 0%, and variation in the fluorescence value when orexin A (human) (PEPTIDE INSTITUTE, INC.) was added at the final concentration of 10 nM was 100%.

| Structure (SMILES) | 0X2R agonist activity (3 μM, %) |
| --- | --- |
| CC(C)c1nn(C)c2c(c1=O)[C@@H](Cc1cccc(-c3ccccc3)c1)[C@@H](NS(C)(=O)=O)CC2 (relative stereo) [Example 161, rel-N-[(5R,6S)-5-[([1,1′-biphenyl]-3-yl)methyl]-1-methyl-4-oxo-3-(propan-2-yl)-1,4,5,6,7,8-hexahydrocinnolin-6-yl]methanesulfonamide] | 101% |
| CS(=O)(=O)N[C@H]1CCc2ccc(C3CC3)c(=O)n2[C@H]1Cc1cccc(-c2ccccc2)c1 (racemic) [Example 22, rac-N-{(3S,4S)-4-[([1,1′-biphenyl]-3-yl)methyl]-7-cyclopropyl-6-oxo-1,3,4,6-tetrahydro-2H-quinolizin-3-yl}methanesulfonamide] | 106% |
| CCc1ccc2n(c1=O)[C@@H](Cc1cccc(-c3ccccc3)c1F)[C@@H](NS(C)(=O)=O)CC2 (racemic) [Example 104, rac-N-{(3S,4S)-7-ethyl-4-[(2-fluoro[1,1′-biphenyl]-3-yl)methyl]-6-oxo-1,3,4,6-tetrahydro-2H-quinolizin-3-yl}methanesulfonamide] | 89% |
| COC1(C(=O)N[C@H]2CCc3ccc(C)c(=O)n3[C@H]2Cc2cccc(-c3cccc(F)c3)c2F)CC1 (relative stereo) [Example 56, rel-N-{(3S,4S)-4-[(2,3′-difluoro[1,1′-biphenyl]-3-yl)methyl]-7-methyl-6-oxo-1,3,4,6-tetrahydro-2H-quinolizin-3-yl}-1-methoxycyclopropane-1-carboxamide] | 93% |
| Cc1ccc2n(c1=O)[C@@H](Cc1cccc(-c3cccc(F)c3)n1)[C@@H](NS(C)(=O)=O)CC2 (racemic) [Example 59, rac-N-[(3S,4S)-4-{[6-(3-fluorophenyl)pyridin-2-yl]methyl}-7-methyl-6-oxo-1,3,4,6-tetrahydro-2H-quinolizin-3-yl]methanesulfonamide] | 86% |
| CCS(=O)(=O)N[C@H]1CCc2ncn(C(C)C)c(=O)c2[C@H]1Cc1cccc(-c2cccc(F)c2)c1 (racemic) [Example 81, rac-N-[(5R,6S)-5-[(3′-fluoro[1,1′-biphenyl]-3-yl)methyl]-4-oxo-3-(propan-2-yl)-3,4,5,6,7,8-hexahydroquinazolin-6-yl]ethanesulfonamide] | 96% |
| CC(C)n1ccc2c(c1=O)[C@@H](Cc1cccc(-c3cccc(F)c3)c1)[C@@H](NS(C)(=O)=O)CC2 (racemic) [Example 74, rac-N-[(7S,8R)-8-[(3′-fluoro[1,1′-biphenyl]-3-yl)methyl]-1-oxo-2-(propan-2-yl)-1,2,5,6,7,8-hexahydroisoquinolin-7-yl]methanesulfonamide] | 91% |
| CC(C)n1cc2n(c1=O)[C@@H](Cc1cccc(-c3ccccc3)c1)[C@@H](NS(C)(=O)=O)CC2 (racemic) [Example 203, rac-N-[(5S,6S)-5-[([1,1′-biphenyl]-3-yl)methyl]-3-oxo-2-(propan-2-yl)-2,3,5,6,7,8-hexahydroimidazo[1,5-a]pyridin-6-yl]methanesulfonamide] | 86% |
| CC1OCC2CCC(NS(C)(=O)=O)C(Cc3cccc(-c4cccc(F)c4)c3)N2C1=O (racemic) [Example 165, rac-N-{(3R,6S,7S,9aR)-6-[(3′-fluoro[1,1′-biphenyl]-3-yl)methyl-3-methyl-4-oxooctahydropyrido[2,1-c][1,4]oxazin-7-yl}methanesulfonamide] | 97% |
| CC(C)n1cnc2c(c1=O)[C@@H](Cc1cccc(-c3cccc(F)c3)c1)[C@@H](NS(=O)(=O)C1CC1)CC2 [Example 188, N-[(5R,6S)-5-[(3′-fluoro[1,1′-biphenyl]-3-yl)methyl]-4-oxo-3-(propan-2-yl)-3,4,5,6,7,8-hexahydroquinazolin-6-yl]cyclopropanesulfonamide] | 107% |
| CC(C)n1cnc2c(c1=O)[C@@H](Cc1cccc(-c3ccccc3)c1)[C@@H](NS(=O)(=O)C1(F)CC1)CC2 (racemic) [Example 146, rac-N-[(5R,6S)-5-[([1,1′-biphenyl]-3-yl)methyl]-4-oxo-3-(propan-2-yl)-3,4,5,6,7,8-hexahydroquinazolin-6-yl]-1-fluorocyclopropane-1-sulfonamide] | 96% |
| [2H]C([2H])([2H])C([2H])(n1cnc2c(c1=O)C(Cc1cccc(-c3ccccc3)c1F)C(NS(=O)(=O)C1CC1)CC2)C([2H])([2H])[2H] [Example 212, rel-N-{(5R,6S)-5-[(2-fluoro[1,1′-biphenyl]-3-yl)methyl]-4-oxo-3-[(~2~H_7_)propan-2-yl]-3,4,5,6,7,8-hexahydroquinazolin-6-yl}cyclopropanesulfonamide] | 99% |
| CCc1ccc(C[C@H]2[C@@H](NS(C)(=O)=O)CCc3ccc(C)c(=O)n32)cc1 (racemic) [Example 216, rac-N-{(3S,4S)-4-[(4-ethylphenyl)methyl]-7-methyl-6-oxo-1,3,4,6-tetrahydro-2H-quinolizin-3-yl}methanesulfonamide] | 76% |
| Cc1ccc2n(c1=O)[C@@H](Cc1cccc(-c3ccccc3)c1)[C@@H](NS(C)(=O)=O)CC2 (relative stereo) [Example 10, rel-N-{(3S,4S)-4-[([1,1′-biphenyl]-3-yl)methyl]-7-methyl-6-oxo-1,3,4,6-tetrahydro-2H-quinolizin-3-yl}methanesulfonamide] | 101% |
| CCS(=O)(=O)N[C@H]1CCc2ncn(C(C)C)c(=O)c2[C@H]1Cc1cccc(-c2ccccc2)c1 (racemic) [Example 80, rac-N-[(5R,6S)-5-[([1,1′-biphenyl]-3-yl)methyl]-4-oxo-3-(propan-2-yl)-3,4,5,6,7,8-hexahydroquinazolin-6-yl]ethanesulfonamide] | 93% |
| Cc1cnc2n(c1=O)[C@@H](Cc1cccc(-c3ccccc3)c1)[C@@H](NS(C)(=O)=O)CC2 (racemic) [Example 94, rac-N-{(6S,7S)-6-[([1,1′-biphenyl]-3-yl)methyl]-3-methyl-4-oxo-6,7,8,9-tetrahydro-4H-pyrido[1,2-a]pyrimidin-7-yl}methanesulfonamide] | 89% |
| Cn1cc2n(c1=O)[C@@H](Cc1cccc(-c3cc(F)cc(F)c3)c1)[C@@H](NS(C)(=O)=O)CC2 (racemic) [Example 201, rac-N-{(5S,6S)-5-[(3′,5′-difluoro[1,1′-biphenyl]-3-yl)methyl]-2-methyl-3-oxo-2,3,5,6,7,8-hexahydroimidazo[1,5-a]pyridin-6-yl}methanesulfonamide] | 91% |
| CC(C)c1nn(C)c2c(c1=O)[C@@H](Cc1csc(-c3ccccc3)n1)[C@@H](NS(C)(=O)=O)C[C@H]2F (racemic) [Example 207, rac-N-[(5R,6S,8R)-8-fluoro-1-methyl-4-oxo-5-[(2-phenyl-1,3-thiazol-4-yl)methyl]-3-(propan-2-yl)-1,4,5,6,7,8-hexahydrocinnolin-6-yl]methanesulfonamide] | 93% |
| Cc1cc2n(c(=O)c1)[C@@H](Cc1cccc(-c3ccccc3)c1)[C@@H](NS(C)(=O)=O)CC2 (racemic) [Example 14, rac-N-{(3S,4S)-4-[([1,1′-biphenyl]-3-yl)methyl]-8-methyl-6-oxo-1,3,4,6-tetrahydro-2H-quinolizin-3-yl}methanesulfonamide] | 107% |
| CCn1cc2n(c1=O)[C@@H](Cc1cccc(-c3ccccc3)c1F)[C@@H](NS(C)(=O)=O)CC2 (racemic) [Example 204, rac-N-{(5S,6S)-2-ethyl-5-[(2-fluoro[1,1′-biphenyl]-3-yl)methyl]-3-oxo-2,3,5,6,7,8-hexahydroimidazo[1,5-a]pyridin-6-yl}methanesulfonamide] | 91% |
| CCc1ccc2n(c1=O)[C@@H](Cc1cccc(-c3cccc(F)c3)c1F)[C@@H](NC(=O)C(=O)N(C)C)CC2 (relative stereo) [Example 43, rel-N~2~-{(3S,4S)-4-[(2,3′-difluoro[1,1′-biphenyl]-3-yl)methyl]-7-ethyl-6-oxo-1,3,4,6-tetrahydro-2H-quinolizin-3-yl}-N~1~,N~1~-dimethylethanediamide] | 90% |
